According to patent publication US11766403B2, “Peptide-targeted liposomal delivery for treatment, diagnosis, and imaging of diseases and disorders” (University of Maryland, Baltimore, priority 2019, dated 2023):
Where no end group is shown, it is not given here.

Columns and labels:
[1] = system: human umbilical vein endothelial cells (HUVEC); test: Binding of FITC-labeled ART-2 peptide to endothelial cells in vitro; assay type: cell-based; conditions: 2 h
Procedure: (§1) FIG. 4, comprising FIG. 4A through FIG. 4D, depicts in vitro and in vivo binding of ART-2 peptides. FIG. 4A depicts the binding of fluorescein isothiocyanate (FITC)-labeled ART-2 peptide to human umbilical vein endothelial cells (HUVEC) in vitro (HUVEC were treated with ART-2-FITC peptides for 2 h at the indicated concentrations). A representative histogram is shown. FIG. 4B depicts HUVEC that were stained with ART-2-FITC peptide at 0.5 μM concentration, PE-labeled CD31 (a marker for endothelial cells), and DAPI (for nucleus staining) and examined under a fluorescence microscope. FIG. 4C depicts in vivo distribution of Cyanine 7 (Cy7)-labeled ART-2 peptide: real-time fluorescence imaging of arthritic rats at 4 h time point after i.v. injection of the peptide following the procedure described in the legend to FIG. 7. FIG. 4D depicts images of ex-vivo fluorescence of different organs harvested from arthritic rats at 4 h after i.v. injection of ART-2-Cy7-peptide.

[2] = system: rat arthritic joints; test: In vivo distribution of Cy7-labeled ART-2 peptide (homing to arthritic joints); conditions: i.v., arthritic rats, 4 h
Procedure: as §1

## CKPFDRALC (not fully specified; cysteine pairing not given here) [ART-2, novel tissue-targeting peptide]
[1]
  binding of peptide to endothelial cells: avid binding to endothelial cells
[2]
  homing to arthritic joints: preferential homing to rat arthritic joints
